From US9012641B2, “Crystalline forms of Prasugrel salts” (Teva Pharmaceuticals Industries Ltd., priority 2010, dated 2015)
Counter-ions that a name gives are not always drawn.

Assay: Storage of the sample in an open Petri dish at room conditions, reanalysed on HPLC
Format: physicochemical
Details: room conditions (20-25° C., relative humidity 20-30%), 1 month, HPLC purity before storage 99.94%
Protocol: The sample was left in an open Petri dish at room conditions (20-25° C., relative humidity 20-30%) for 1 month and then reanalyzed on HPLC giving purity of 99.84%.

## CC(=O)Oc1cc2c(s1)CCN(C(C(=O)C1CC1)c1ccccc1F)C2 (stereo not shown) [form II of prasugrel hydrobromide, Prasugrel hydrobromide]
  HPLC purity after storage: 99.84%
